This experiment addresses T1, Human PD-L1/PD-1 (Homo sapiens, UniProt Q9NZQ7).
T1 construct: TVMV protease cleavage site (C); made in house; host or cells: HEK293T cells
In words: HTRF Human PD-L1/PD-1 binding assay (PD-1-Ig/PD-L1-His). The settings on record: PD-L1-His 10 nM, PD-1-Ig 20 nM. In short, it runs like this: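 Step 1: compound with PD-L1-His (10 nM final), 15 min. Step 2: PD-1-Ig (20 nM final), 15 min. Step 3: Eu-cryptate anti-Ig (1 nM) plus APC anti-His (20 nM), 30 min equilibration. Signal taken as 665 nm/620 nm ratio.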
(In general: TR-FRET usually uses a lanthanide donor and a delayed reading to cut background.)

[1] abbreviates: class symbol, read-out: HTRF Human PD-L1/PD-1 Binding Assay IC50 Range.

Where two headings read alike, the source gives them in different places. Where a SMILES comes first, the peptide text is derived from it. Bridges are numbered along the chain shown (N, C = ends). [ ]: non-standard residue; d: D form. ξ: configuration not given here. Phe(3,4-F2) = N[C@@H](Cc1ccc(F)c(F)c1)C(=O)O; dPro(4S-Me) = C[C@@H]1CN[C@@H](C(=O)O)C1; Phe(4-F) = N[C@@H](Cc1ccc(F)cc1)C(=O)O; NMeF = CN[C@@H](Cc1ccccc1)C(=O)O; dNMeF = CN[C@H](Cc1ccccc1)C(=O)O; hIle(4ξ) = CCC(C)C[C@H](N)C(=O)O; dHyp = O=C(O)[C@H]1C[C@H](O)CN1; NMehSer = CN[C@@H](CCO)C(=O)O; NMeNle = CCCC[C@H](NC)C(=O)O; NMeV = CN[C@H](C(=O)O)C(C)C; dPip = O=C(O)[C@H]1CCCCN1; Orn = NCCC[C@H](N)C(=O)O

T1 sequence (Q9NZQ7 with tags, fused parts or gaps): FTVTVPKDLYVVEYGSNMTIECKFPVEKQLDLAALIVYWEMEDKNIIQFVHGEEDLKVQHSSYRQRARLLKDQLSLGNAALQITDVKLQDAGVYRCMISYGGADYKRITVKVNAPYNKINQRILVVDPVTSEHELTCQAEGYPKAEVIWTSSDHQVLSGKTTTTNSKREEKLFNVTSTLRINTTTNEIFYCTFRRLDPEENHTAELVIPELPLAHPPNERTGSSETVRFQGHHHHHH

As for `CCCC[C@H]1C(=O)N2C[C@@H](C)C[C@@H]2C(=O)N[C@@H](CC(=O)O)C(=O)N[C@@H](C(C)C)C(=O)N(C)[C@H](Cc2ccccc2)C(=O)N[C@@H](Cc2ccc(OC)cc2)C(=O)N2C[C@@H](O)C[C@@H]2C(=O)N[C@@H](Cc2c[nH]c3ccccc23)C(=O)N[C@@H](Cc2ccc(O)cc2)C(=O)N[C@@H](CCCN)C(=O)N[C@H](C(=O)NCC(N)=O)CSCC(=O)N[C@@H](Cc2ccc(F)c(F)c2)C(=O)N(C)[C@@H](Cc2ccccc2)C(=O)N1C` [Example 9230] ({CH2CO}-[Phe(3,4-F2)][NMeF][NMeNle][dPro(4S-Me)]DV[dNMeF]Y(Me)[dHyp]WY[Orn]CG-NH2; thioether N-13), under setting [1], the IC50 lay in the range of 10 to 99.9 nM.

In the case of `CCCC[C@H]1C(=O)N2C[C@@H](O)C[C@@H]2C(=O)N[C@@H](CC(=O)O)C(=O)N[C@@H](C(C)C)C(=O)N(C)[C@@H](Cc2ccccc2)C(=O)N[C@@H](Cc2ccc(O)cc2)C(=O)N2C[C@@H](O)C[C@@H]2C(=O)N[C@@H](Cc2c[nH]c3ccccc23)C(=O)N[C@@H](Cc2ccc(O)cc2)C(=O)N[C@@H](CCCN)C(=O)N[C@H](C(=O)NCC(N)=O)CSCC(=O)N[C@@H](Cc2ccc(F)c(F)c2)C(=O)N(C)[C@@H](Cc2ccccc2)C(=O)N1C` [Example 9231] ({CH2CO}-[Phe(3,4-F2)][NMeF][NMeNle][dHyp]DV[NMeF]Y[dHyp]WY[Orn]CG-NH2; thioether N-13), the IC50 under setting [1] lay within 1 to 9.9 nM. Same read-out and setting: the figure for `CCCC[C@H]1C(=O)N2C[C@@H](O)C[C@@H]2C(=O)N[C@@H](CC(=O)O)C(=O)N[C@@H](C(C)C)C(=O)N(C)[C@H](Cc2ccccc2)C(=O)N[C@@H](Cc2ccc(O)cc2)C(=O)N2C[C@@H](O)C[C@@H]2C(=O)N[C@@H](Cc2c[nH]c3ccccc23)C(=O)N[C@@H](Cc2ccc(O)cc2)C(=O)N[C@@H](CCCN)C(=O)N[C@H](C(=O)NCC(N)=O)CSCC(=O)N[C@@H](Cc2ccc(F)c(F)c2)C(=O)N(C)[C@@H](Cc2ccccc2)C(=O)N1C` [Example 9232] ({CH2CO}-[Phe(3,4-F2)][NMeF][NMeNle][dHyp]DV[dNMeF]Y[dHyp]WY[Orn]CG-NH2; thioether N-13) is 1 to 9.9 nM. Still for that read-out and setting: the figure for `COCC[C@H]1C(=O)N2C[C@@H](O)C[C@@H]2C(=O)N[C@@H](CC(=O)O)C(=O)N[C@@H](C(C)C)C(=O)N(C)[C@@H](Cc2ccccc2)C(=O)N[C@@H](Cc2ccc(O)cc2)C(=O)N2C[C@@H](O)C[C@@H]2C(=O)N[C@@H](Cc2c[nH]c3ccccc23)C(=O)N[C@@H](Cc2ccc(O)cc2)C(=O)N[C@@H](CC(C)C)C(=O)N[C@H](C(=O)NCC(N)=O)CSCC(=O)N[C@@H](Cc2ccc(F)c(F)c2)C(=O)N(C)[C@@H](Cc2ccccc2)C(=O)N1C` [Example 9233] ({CH2CO}-[Phe(3,4-F2)][NMeF][NMehSer](Me)[dHyp]DV[NMeF]Y[dHyp]WYLCG-NH2; thioether N-13) is 1 to 9.9 nM. The same measure, in the same setting: under `COCC[C@H]1C(=O)N2C[C@@H](O)C[C@@H]2C(=O)N[C@@H](CC(=O)O)C(=O)N[C@@H](C(C)C)C(=O)N(C)[C@H](Cc2ccccc2)C(=O)N[C@@H](Cc2ccc(O)cc2)C(=O)N2C[C@@H](O)C[C@@H]2C(=O)N[C@@H](Cc2c[nH]c3ccccc23)C(=O)N[C@@H](Cc2ccc(O)cc2)C(=O)N[C@@H](CC(C)C)C(=O)N[C@H](C(=O)NCC(N)=O)CSCC(=O)N[C@@H](Cc2ccc(F)c(F)c2)C(=O)N(C)[C@@H](Cc2ccccc2)C(=O)N1C` [Example 9234] ({CH2CO}-[Phe(3,4-F2)][NMeF][NMehSer](Me)[dHyp]DV[dNMeF]Y[dHyp]WYLCG-NH2; thioether N-13) stands 1 to 9.9 nM; under `COCC[C@H]1C(=O)N2C[C@@H](O)C[C@@H]2C(=O)N[C@@H](CC(=O)O)C(=O)N[C@@H](C(C)C)C(=O)N(C)[C@@H](Cc2ccccc2)C(=O)N[C@@H](Cc2ccc(OC)cc2)C(=O)N2C[C@@H](O)C[C@@H]2C(=O)N[C@@H](Cc2c[nH]c3ccccc23)C(=O)N[C@@H](Cc2ccc(O)cc2)C(=O)N[C@@H](CC(C)C)C(=O)N[C@H](C(=O)NCC(N)=O)CSCC(=O)N[C@@H](Cc2ccc(F)c(F)c2)C(=O)N(C)[C@@H](Cc2ccccc2)C(=O)N1C` [Example 9235] ({CH2CO}-[Phe(3,4-F2)][NMeF][NMehSer](Me)[dHyp]DV[NMeF]Y(Me)[dHyp]WYLCG-NH2; thioether N-13), 1 to 9.9 nM; under `COCC[C@H]1C(=O)N2C[C@@H](O)C[C@@H]2C(=O)N[C@@H](CC(=O)O)C(=O)N[C@@H](C(C)C)C(=O)N(C)[C@H](Cc2ccccc2)C(=O)N[C@@H](Cc2ccc(OC)cc2)C(=O)N2C[C@@H](O)C[C@@H]2C(=O)N[C@@H](Cc2c[nH]c3ccccc23)C(=O)N[C@@H](Cc2ccc(O)cc2)C(=O)N[C@@H](CC(C)C)C(=O)N[C@H](C(=O)NCC(N)=O)CSCC(=O)N[C@@H](Cc2ccc(F)c(F)c2)C(=O)N(C)[C@@H](Cc2ccccc2)C(=O)N1C` [Example 9236] ({CH2CO}-[Phe(3,4-F2)][NMeF][NMehSer](Me)[dHyp]DV[dNMeF]Y(Me)[dHyp]WYLCG-NH2; thioether N-13), 1 to 9.9 nM.

Take `COCC[C@H]1C(=O)N2C[C@@H](O)C[C@@H]2C(=O)N[C@@H](CC(=O)O)C(=O)N[C@@H](C(C)C)C(=O)N(C)[C@@H](Cc2ccccc2)C(=O)N[C@@H](Cc2ccc(O)cc2)C(=O)N2C[C@@H](O)C[C@@H]2C(=O)N[C@@H](Cc2c[nH]c3ccccc23)C(=O)N[C@@H](Cc2ccc(O)cc2)C(=O)N[C@@H](CCCN)C(=O)N[C@H](C(=O)NCC(N)=O)CSCC(=O)N[C@@H](Cc2ccc(F)c(F)c2)C(=O)N(C)[C@@H](Cc2ccccc2)C(=O)N1C` [Example 9237] ({CH2CO}-[Phe(3,4-F2)][NMeF][NMehSer](Me)[dHyp]DV[NMeF]Y[dHyp]WY[Orn]CG-NH2; thioether N-13): the IC50 under setting [1] lay within 1 to 9.9 nM. In the case of `COCC[C@H]1C(=O)N2C[C@@H](O)C[C@@H]2C(=O)N[C@@H](CC(=O)O)C(=O)N[C@@H](C(C)C)C(=O)N(C)[C@H](Cc2ccccc2)C(=O)N[C@@H](Cc2ccc(O)cc2)C(=O)N2C[C@@H](O)C[C@@H]2C(=O)N[C@@H](Cc2c[nH]c3ccccc23)C(=O)N[C@@H](Cc2ccc(O)cc2)C(=O)N[C@@H](CCCN)C(=O)N[C@H](C(=O)NCC(N)=O)CSCC(=O)N[C@@H](Cc2ccc(F)c(F)c2)C(=O)N(C)[C@@H](Cc2ccccc2)C(=O)N1C` [Example 9238] ({CH2CO}-[Phe(3,4-F2)][NMeF][NMehSer](Me)[dHyp]DV[dNMeF]Y[dHyp]WY[Orn]CG-NH2; thioether N-13), the IC50 under setting [1] lay in the range of 1 to 9.9 nM. Consider `COCC[C@H]1C(=O)N2C[C@@H](O)C[C@@H]2C(=O)N[C@@H](CC(=O)O)C(=O)N[C@@H](C(C)C)C(=O)N(C)[C@@H](Cc2ccccc2)C(=O)N[C@@H](Cc2ccc(OC)cc2)C(=O)N2C[C@@H](O)C[C@@H]2C(=O)N[C@@H](Cc2c[nH]c3ccccc23)C(=O)N[C@@H](Cc2ccc(O)cc2)C(=O)N[C@@H](CCCN)C(=O)N[C@H](C(=O)NCC(N)=O)CSCC(=O)N[C@@H](Cc2ccc(F)c(F)c2)C(=O)N(C)[C@@H](Cc2ccccc2)C(=O)N1C` [Example 9239] ({CH2CO}-[Phe(3,4-F2)][NMeF][NMehSer](Me)[dHyp]DV[NMeF]Y(Me)[dHyp]WY[Orn]CG-NH2; thioether N-13), for which, under “read-out: HTRF Human PD-L1/PD-1 Binding Assay IC50”, the IC50 worked out at 3.8 nM. In the case of `COCC[C@H]1C(=O)N2C[C@@H](O)C[C@@H]2C(=O)N[C@@H](CC(=O)O)C(=O)N[C@@H](C(C)C)C(=O)N(C)[C@H](Cc2ccccc2)C(=O)N[C@@H](Cc2ccc(OC)cc2)C(=O)N2C[C@@H](O)C[C@@H]2C(=O)N[C@@H](Cc2c[nH]c3ccccc23)C(=O)N[C@@H](Cc2ccc(O)cc2)C(=O)N[C@@H](CCCN)C(=O)N[C@H](C(=O)NCC(N)=O)CSCC(=O)N[C@@H](Cc2ccc(F)c(F)c2)C(=O)N(C)[C@@H](Cc2ccccc2)C(=O)N1C` [Example 9240] ({CH2CO}-[Phe(3,4-F2)][NMeF][NMehSer](Me)[dHyp]DV[dNMeF]Y(Me)[dHyp]WY[Orn]CG-NH2; thioether N-13), under setting [1], the IC50 lay within 1 to 9.9 nM.

Consider `CCCC[C@H]1C(=O)N2CCC[C@@H]2C(=O)N[C@@H](CC(=O)O)C(=O)N[C@@H](C(C)C)C(=O)N(C)[C@@H](C(C)C)C(=O)N[C@@H](Cc2ccc(O)cc2)C(=O)N2CCC[C@@H]2C(=O)N[C@@H](Cc2c[nH]c3ccccc23)C(=O)N[C@@H](Cc2ccc(O)cc2)C(=O)N[C@@H](CC(C)C)C(=O)N[C@H](C(=O)NCC(N)=O)CSCC(=O)N[C@@H](Cc2ccc(F)cc2)C(=O)N(C)[C@@H](Cc2ccccc2)C(=O)N1C` [Example 9241] ({CH2CO}-[Phe(4-F)][NMeF][NMeNle][dP]DV[NMeV]Y[dP]WYLCG-NH2; thioether N-13), for which, under setting [1], the IC50 was 1000 to 10000 nM. The same measure, in the same setting: under `CCCC[C@H]1C(=O)N2CCC[C@@H]2C(=O)N[C@@H](CC(=O)O)C(=O)N[C@@H](C(C)C)C(=O)N(C)[C@@H](C(C)C)C(=O)N[C@@H](Cc2ccc(O)cc2)C(=O)N2CCCC[C@@H]2C(=O)N[C@@H](Cc2c[nH]c3ccccc23)C(=O)N[C@@H](Cc2ccc(O)cc2)C(=O)N[C@@H](CC(C)CC)C(=O)N[C@H](C(=O)NCC(N)=O)CSCC(=O)N[C@@H](Cc2ccc(F)cc2)C(=O)N(C)[C@@H](Cc2ccccc2)C(=O)N1C` (some centres unmarked) [Example 9242] ({CH2CO}-[Phe(4-F)][NMeF][NMeNle][dP]DV[NMeV]Y[dPip]WY[hIle(4ξ)]CG-NH2; thioether N-13) stands 1000 to 10000 nM. The same measure, in the same setting: under `CCCC[C@H]1C(=O)N2CCC[C@@H]2C(=O)N[C@@H](CC(=O)O)C(=O)N[C@@H](C(C)C)C(=O)N(C)[C@@H](C(C)C)C(=O)N[C@@H](Cc2ccc(O)cc2)C(=O)N2CCC[C@@H]2C(=O)N[C@@H](Cc2c[nH]c3ccccc23)C(=O)N[C@@H](Cc2ccc(O)cc2)C(=O)N[C@@H](CCCN)C(=O)N[C@H](C(=O)NCC(N)=O)CSCC(=O)N[C@@H](Cc2ccc(F)cc2)C(=O)N(C)[C@@H](Cc2ccccc2)C(=O)N1C` [Example 9243] ({CH2CO}-[Phe(4-F)][NMeF][NMeNle][dP]DV[NMeV]Y[dP]WY[Orn]CG-NH2; thioether N-13) stands 1000 to 10000 nM.
